Columns and labels:
[1] = test system: EpiOccular® model made of human-derived epidermal keratinocytes cultured to make them similar to human corneal tissue; format: cell-based
Description: Irritancy to the eyes and to the skin was tested in-vitro using the EpiDerm® and EpiOccular® test models. EpiDerm® is a human test model of skin made up of normal epidermal keratinocytes. The EpiOccular® model is made of human-derived epidermal keratinocytes cultured to make them similar to human corneal tissue. In each of the tests, tissue samples are treated with the test article for various exposure times. Following treatment, the viability of the tissue is determined using MTT uptake and conversion, and the absorbance of the sample is measured at 540 nanometers (nm) wavelength using a reference wavelength of 690 nm. The viability is expressed as a percentage of control values. The mean percentage viability for each time point is used to calculate the ET50, which represents the time at which the tissue viability is reduced 50% compared to control tissue. […] Typically, higher molecular weight results in lower eye and skin irritancy.

[2] = Rubine Dye test for substantivity on hair (chromameter); conditions: Example 3, second matrix of prototypes
Excerpt: The substrate (i.e., surface to which they are applied) in cosmetic applications is either the hair or the skin. […] Cationic conditioning agents act by binding a moiety, typically a long chain alkyl group, to the hair or skin by electrostatic attraction (ionic bonding), but also, weaker forces such as dipole-dipole interactions, and furthermore van der Waals forces can assist in substrate binding. Substantivity is a term used to describe how well a conditioning agent binds to the surface of the substrate. Substantivity of hair conditioning agents is often determined by performing the Rubine Dye test. The Rubine Dye test is designed to show how much of the conditioning ingredient adheres to the hair. Results from the Rubine Dye test are normally evaluated by comparison to some known standard or benchmark.
The polyesteramine prototypes were tested internally for substantivity using the Rubine Dye test protocol. In the Rubine Dye test, the prototypes were benchmarked against Dehyquart® L-80 (dicocoylethyl hydroxyethylmonium methosulfate (and) propylene glycol), a commercial ester quaternary. The materials and equipment used in performing the Rubine Dye analysis were:
The protocol used to perform the Rubine Dye analysis on polyesteramine prototypes and Dehyquart® L-80 and the compositions of ingredients used is described below.
First, a stock dye solution was prepared using the following formula and preparation procedure: […]
In a small vessel, deionized water, Lumicrease Bordeaux 3LR Powder, and glacial acetic acid were agitated at about 20 to about 25° C. until a solution was obtained. […]
From about 0.95 to about 1.05 grams of hair was weighed out and glued onto pre-cut plastic sheets (1.5″×1.5″) using a hot glue gun to attach the swatches to the sheets. […] Quantitative comparisons of dye up-take and relative substantivity of each polymer were performed using a Minolta chromameter. Additionally, dye up-take was evaluated qualitatively by taking photographs of the hair swatches using a digital camera. […]

SMILES | EpiOcular ® ET50 ([1]; exposure times 16, 64 and […], time at which tissue viability is reduced 50% vs control) | irritancy classification, eyes ([1]; from EpiOcular ET50) | a-scale value ([2]; higher a = more deposition) | L-scale value ([2]; lower L = more deposition) | b-scale value ([2]; lower b = more deposition)
CCCCCCCCCCCCCCCC[N+](C)(C)C.[Cl-] [cetrimonium chloride] | 116.9 min | more irritating | – | – | –
CCCCCCCCCCCCCCCCCC(=O)NCCCN(C)C [Lexamine ® S-13, stearamidopropyldimethylamine] | – | – | 19.16 | 65.15 | 8.57

Source: patent US20080279795A1, “Tertiary Amine Functional Complex Polyester Polymers And Methods Of Production And Use” (priority 2003, published 2008)
